Results reported in paper PMC8835363, “Arachidin-1, a Prenylated Stilbenoid from Peanut, Induces Apoptosis in Triple-Negative Breast Cancer Cells” (International Journal of Molecular Sciences, 2022).

What was measured:
[1] = test system: MCF-10A cells; test: RealTime-Glo MT cell viability (cytotoxicity) assay; assay type: cell-based, human; conditions: 1 µM, 24, 48, 72 h
Protocol: The cytotoxicity of RES, A-1, and A-3 was measured using the RealTime-Glo^TM MT Cell Viability Assay (Promega, Madison, WI, USA). The cells (10,000 cells/well) were seeded into 96-well plates. After 24 h, they were treated with various 10-fold dilutions of RES, A-1, and A-3 with concentrations ranging from 0.1 µM to 1000 µM. Cells with 0.1% DMSO (ATCC; Manassas, VA, USA) were included as a control. Luminescence was measured every 12 h for 72 total hours in a Cytation^TM 5 (BioTek, Winooski, VT, USA) plate reader. All experiments were performed in triplicates.

[2] = test system: MDA-MB-436 cells; test: Cell cycle analysis with PI (flow cytometry); assay type: cell-based, human
Protocol: Cells were seeded onto 6-well plates and treated with A-1 (0.1 µM and 1 µM) for 24, 48, and 72 h. Cells incubated with 0.01% DMSO (ATCC; Manassas, VA, USA) were used as a control. Then, MDA-MB-231 and MCF-10A cells were collected by trypsinization; MDA-MB-436 cells were collected by scraping. Treated cells were fixed with ice-cold 70% ethanol while vortexing and incubated for 1 h in 4 °C. Then, cells were washed with cold 1X DPBS, treated with 1 mg/mL of ribonuclease A, and incubated for 30 min at 37 °C. The cells were then stained with 10 µg/mL of propidium iodide (PI), incubated for 30 min at 37 °C, and analyzed by flow cytometry using BD FACS Aria Sorter (BD Biosciences, Franklin Lakes, NJ, USA). Data were analyzed with Modfit LT 5.0 software (Verity Software House; Topsham, ME, USA). All experiments were performed in triplicates.

[3] = test system: caspase-3/7 activity in MDA-MB-231 cells; test: Apo-ONE Homogenous Caspase-3/7 Assay; assay type: cell-based, human; conditions: 0.1, 1, 10 µM, 48 h
Protocol: (§1) The Apo-ONE® Homogenous Caspase-3/7 Assay (Promega, Madison, WI, USA) was used for measuring caspase-3/7 activity. Cells (10,000 cells/well) were seeded in 96-well plates. After 24 h, the cells were treated with A-1, A-3, and RES, and incubated for an additional 48 h at 37 °C, with a humidified atmosphere of 5% CO2 (however, MDA-MB-436 cells were incubated in 0% CO2). Control groups were cells treated with 0.01% DMSO (ATCC; Manassas, VA, USA). According to the manufacturer, after 48 h of treatment, the caspase reagent was added to the cells and the plates were incubated at room temperature in the dark for 1 h. Then, fluorescence was measured every hour for a total of 4 h using the Cytation^TM 5 (BioTek; Winooski, VT, USA) plate reader at an excitation wavelength of 485 ± 20 nm and emission of 530 ± 25 nm.

[4] = test system: caspase-3/7 activity in MDA-MB-436 cells; test: Apo-ONE Homogenous Caspase-3/7 Assay; assay type: cell-based, human; conditions: 0.1, 1, 10 µM, 48 h
Protocol: as §1

[5] = test system: caspase-8, 9, PARP, and survivin proteins in MDA-MB-231 cells; test: Western blot of caspase-8, caspase-9, PARP and survivin; assay type: cell-based, human; conditions: 0.1 and 1 µM, 24 h
Protocol: (§2) MDA-MB-231 and MDA-MB-436 cells (10^7 and 5 × 10^6 cells/3 mL medium, respectively) were seeded in a 6-well cell culture plate. After 24 h, the cells were treated with A-1 (0.1 µM and 1 µM) for 24 h. Cells treated with 0.01% DMSO (ATCC; Manassas, VA, USA) were included as a control. Protein extracts were prepared using RIPA Lysis and Extraction Buffer plus Halt™ Protease Inhibitor Cocktail (Thermo Fisher Scientific; Waltham, MA, USA). The protein concentration was measured using the Bradford assay (Thermo Fisher Scientific; Waltham, MA, USA). Protein extracts (60 µg) with 5 µL of 2X Novex™ Tris-Glycine SDS Sample Buffer (Thermo Fisher Scientific; Waltham, MA, USA) and 1% dithiothreitol (DTT; Thermo Fisher Scientific; Waltham, MA, USA) were denatured and separated by electrophoresis using SDS-PAGE in 10% Tris-Glycine pre-cast gel (Novex™ WedgeWell™, Thermo Fisher Scientific; Waltham, MA, USA). The gel was run in 1X Novex™ Tris-Glycine SDS running buffer (Thermo Fisher Scientific; Waltham, MA, USA) at a constant 125 voltage for 90 min. The proteins were transferred into Trans-Blot Turbo Mini 0.2 µm PVDF membranes (Bio-Rad Laboratories; Hercules, CA, USA) using the Trans Blot Turbo System (Bio-Rad Laboratories; Hercules, CA, USA) at 1.3 amp and up to 25 volts for 7 min. After the membranes dried completely, they were incubated in 1X Tris Buffered Saline (TBS; Bio-Rad; Hercules, CA, USA) for 5 min at room temperature. Then, the membranes were blocked with 5% non-fat dry milk in 1X TBS containing 1% Tween 20 (TBST; Bio-Rad; Hercules, CA, USA) for 1 h at room temperature. The membranes were incubated with specific primary antibodies at 4 °C overnight. The primary antibodies and dilutions included rabbit anti-caspase-8 (D35G2) mAb (1:500; Cell Signaling Technology; Danvers, MA, USA), rabbit anti-PARP mAb (1:500; Cell Signaling Technology; Danvers, MA, USA), rabbit anti-human survivin polyclonal antibody (0.5 µg/mL; R&D Systems; Minneapolis, MN, USA), mouse anti-human caspase-9 mAb (1 µg/mL; R&D Systems; Minneapolis, MN, USA), mouse anti-vinculin antibody (2 µg/mL; R&D Systems; Minneapolis, MN, USA), and mouse anti-human GAPDH antibody (0.05 µg/mL; R&D Systems; Minneapolis, MN, USA). Afterwards, the membranes were incubated with HRP-conjugated goat anti-rabbit IgG secondary antibody (1:2000; Cell Signaling Technology; Danvers, MA, USA) and HRP-conjugated AffiniPure goat anti-mouse IgG secondary antibody (1:50,000; Jackson Immunoresearch Laboratories; West Grove, PA, USA) for 1 h at room temperature. The membranes were washed with 1X TBST and then incubated with SuperSignal™ West Pico PLUS Chemiluminescent Substrate (Thermo Fisher Scientific; Waltham, MA, USA). The membranes were scanned and analyzed using the Li-COR Odyssey® Fc Imaging System (LI-COR Biosciences; Lincoln, NE, USA).

[6] = test system: caspase-8, 9, PARP, and survivin proteins in MDA-MB-436 cells; test: as above; assay type: cell-based, human; conditions: 0.1 and 1 µM, 24 h
Protocol: as §2

[7] = test system: human leukemia HL-60 cell line; design: method as in PMID 21067217; conditions: 72 h treatment; cited from earlier work

CC(C)/C=C/c1c(O)cc(/C=C/c2ccc(O)c(O)c2)cc1O [A-1, arachidin-1]
cytotoxicity in non-cancerous epithelial cells [1]: did not show any statistically significant cytotoxicity
percentage of cells in G2-M phase ([2]; 0.1 µM, 48 h): 25.82 ± 2.73%
percentage of cells in G2-M phase ([2]; 0.1 µM, 72 h): 38.89 ± 0.08%
percentage of cells in G2-M phase ([2]; 1 µM, 24 h): 23.97 ± 0.57%
percentage of cells in G2-M phase ([2]; 1 µM, 48 h): 31.07 ± 0.29%
percentage of cells in G2-M phase ([2]; 1 µM, 72 h): 36.88 ± 1.42%
cell cycle effect ([2]; 0.1 and 1 µM): increased the percentage of cells in the G2-M phase
caspase-3/7 activity vs control [3]: significant increase of dose-dependent caspase-3/7 activities
caspase-3/7 activity vs control [4]: significant increase of dose-dependent caspase-3/7 activities
cleaved PARP level [5]: only slightly increased and not statistically significant
cleaved caspase-9 level [5]: only significantly increased in A-1 1 µM
full-length PARP protein level [5]: significantly decreased levels
full-length caspase-8 level [5]: no significant change
survivin expression [5]: downregulated
cleaved PARP level [6]: significantly increased
cleaved caspase-9 level [6]: significantly increased
full-length caspase-8 level [6]: no significant change
survivin expression [6]: downregulated
IC50 [7]: 4.2 µM
